Test results published in patent US10906909B2, “Treatment of cognitive and mood symptoms in neurodegenerative and neuropsychiatric disorders with ALPHA5-containing GABAA receptor agonists” (UWM Research Foundation, Inc., priority 2016, dated 2021).
Values joined by “and” are separate entries in the source; they are usually repeats but may differ in a detail not shown here. Identical values can stand only once. “Also recorded” adds a separate entry of the source.

Legend:
[1] = system: mice subjected to chronic restraint stress (CRS); test: Y-maze alternation task, chronic restraint stress (CRS) mice; type: in vivo, mouse
Description: C57/B16 mice, males and females were ordered from Jackson Laboratories at 8 weeks old and were kept in normal housing conditions (12 h light ON cycle starting at 7 am/water and food ad libitum) for one week. During this week, animals were single housed and handled to reduce the anxiety-like response toward the experimenter. To induce a working memory deficit, mice were subjected to a chronic restraint stress protocol (CRS). They were placed in a 50 ml Falcon® tube, twice a day, for 1 hour during their diurnal cycle. The time of occurrence of the stress was randomized every day to avoid predictability. CRS was not applied on testing days. Y-maze test occurred 15 hours minimum after the last stressor.
Mice were first habituated to the Y-maze apparatus and distal cues during 2 consecutive days over a 10 min free exploration session (one session per day). The next day, animals performed a training session consisting in seven successive trials separated by a 30 s inter-trial interval (ITI); during this training session, mice were familiarized with the experimental procedure (opening and closing of the doors and confinement into the goal arms). For each trial, mice remained in the start-box for a 30 s ITI. Then, the door was opened and the mouse was allowed to enter freely one of the two goal arms; the chosen arm was closed and the choice was recorded. After a 30 s confinement period into the chosen arm, the mouse was removed and brought back to the start-box for a second trial identical to the first one and this procedure was repeated over the series of trials.
The same general procedure used in the training session was implemented 24 h later, except that the ITI was lengthened to 90 s. For this experiment, animals were acutely injected i.p. with vehicle or αPAM, 30 minutes before the beginning of the test. To dissociate memory deficits from an eventual progressive loss of motivation to alternate over the series, an 8th trial was added to the series which was separated from the 7th trial by a shorter ITI (5 s). All animals failing to alternate at the 8th trial were excluded. The mean alternation rate was calculated and was expressed in percentage (number of alternation done by the animal/total number of alternation possible×100)±SEM. The percentage of alternation during the entire task is considered as an index of working memory performance (50% of being a random alternation rate). Factorial ANOVA was applied to the data to reveal differences between groups. If the ANOVA was significant for group effect (p<0.05), Scheffe post-hoc analysis were conducted to identify which groups are different from each other.
(§1) All drugs were diluted in a vehicle solution containing 85% H2O, 14% propylene glycol (Sigma Aldrich) and 1% Tween 80 (Sigma Aldrich). Working solutions were prepared at a concentration of 10 mg/mL and administered i.p. adjusted to the body weight of each animal. Doses used were either 1, 5, 10 or 20 mg/kg. For all Y maze experiments, animals were acutely injected i.p. with vehicle or αPAM, 30 minutes before the beginning of the test.

mice = test: Home cage locomotor activity in mice; type: in vivo, mouse; conditions: vs vehicle
Description: Mice were placed in a clean cage, similar to their home-cage (28.2×17.1 cm), without bedding and lid to allow video recording from the top. Tacking was performed and distance travelled (30 min session) was analyzed using ANY-Maze™ tracking software (version 499z) to assess the locomotor activity in a home-cage environment. Animals received a single dose of compound or vehicle solution 1 hour before testing.
as §1, with “Drug preparation and administration: All” for “All”, “20” for “10”, “5 or” for “5,”, “10” for “10 or 20”, “locomotor activity” for “Y maze”, “1 hour” for “30 minutes”

[2] = system: Female Swiss Webster mice; test: Rotarod sensorimotor / locomotor coordination; type: in vivo, mouse; conditions: 40 mg/kg oral gavage; 15 rpm, 3 min; 10, 30, 60 min after dosing
Description: Female Swiss Webster mice (10 weeks of age) from Charles River Laboratory, WIL, MA were used for the experiments. The animals were housed under specific pathogen-free conditions, under standard conditions of humidity, temperature and a controlled 12 h light and dark cycle and had free access to food and water. The sensorimotor rotarod test was carried out 10, 30 and 60 minutes after the injection. Mice were tested on a rotarod at 15 rpm for maximum 3 min and the time of fall was recorded. Falling before the 3 minutes period of testing assesses of locomotor coordination impairment induced by the compound.
Mice (N=10/group) received a single administration via oral gavage of test compound (40 mg/kg), diazepam (5 mg/kg), or vehicle (2% polyethylene glycol, 2.5% hydroxypropylmethyl cellulose solution).

[3] = Human liver microsome stability assay; type: in vitro ADME; conditions: 10 μM compound; for half-life at 10 μM: human, liver microsomes, read-out: Half-life (min) (HumanLM); for % left (Human LM), (1 h): cells marked (1 h)
Description: (§2) Human and mouse liver microsomes were obtained fom BD Gentest.
(§3) Each evaluation included six independent assays carried out three at a time, on two different days
(§4) 2. For a total volume of Microsomal Assay Mixture (MAM) 390 μL, sufficient for seven time points, combine the following
(§5) 3. Sonicate MAM for 5 min and meanwhile thaw microsomes (20 mg/mL) (BD Gentest, Cat #452156) on ice.
(§6) 4. Aliquot 100 μL of ice cold ISTD into 7 separate 1.5 mL conical vials and label them the time points for 0, 10, 20, 40, 60, 90, and 120 min.
(§7) 5. Arrange the timer. Microsomes (Final concentration of 0.5 mg/mL) should be added to all time points except the zero time point.
(§8) 6. Add 50 μL of the MAM solution to the conical vial labelled as zero time point. Place the remaining MAM solution in the incubator (37° C.) for 5 min and initiate the reaction with addition of microsomes (8.8 μL) and record the time.
(§9) 7. At the end of each time interval remove 50 μL and add 100 μL to ISTD in conical vial, sonicate for 10 sec and spin down at 10,000 rpm for 5 minutes.
(§10) 8. Take 100 μL of supernatant and transfer to Spin-X HPLC filter tubes (Corning Incorporated, Cat #8169) and centrifuge at 13,000 rpm for 5 minutes and take 5 μL from this solution and dilute in 495 μL of LCMS grade methanol (Fischer scientific, CAS #67-56-1) in an 2 mL glass auto sampler vial (Microsolv, Cat #95025-WCV) 9. The samples are analyzed by LCMS-8040. (Shimadzu)
(§11) Calculation: From the peak area, calculate the following
(§12) The compounds are tested for the metabolic stability in the Human and Mouse Liver microsomes at 10 μM concentration.

[4] = Mouse liver microsome stability assay; type: in vitro ADME; conditions: 10 μM compound; for % left (MouseLM), (1 h): cells marked (1 h); for half-life at 10 μM: mouse, liver microsomes, read-out: Half-life (min) (MouseLM)
Description: as §2, §3, §4, §5, §6, §7, §8, §9, §10, §11, §12

[5] = 5 mg/kg i.p. 30 min before testing
[6] = 10 mg/kg i.p. 30 min before testing
[7] = 1 mg/kg i.p. 60 min before testing
[8] = 5 mg/kg i.p. 60 min before testing
[9] = 10 mg/kg i.p. 60 min before testing
[10] = 1 mg/kg i.p. 30 min before testing

| SMILES | effect on CRS-induced working memory deficit (percent alternation rate, Y-maze) [1, 5] | effect on CRS-induced working memory deficit (percent alternation rate, Y-maze) [1, 6] | effect on CRS-induced working memory deficit (percent alternation rate, Y-maze) ([1]; 20 mg/kg i.p. 30 min before testing) | locomotor activity (distance travelled, 30 min session) (mice; [7]) | locomotor activity (distance travelled, 30 min session) (mice; [8]) | locomotor activity (distance travelled, 30 min session) (mice; [9]) | sensorimotor impairment on rotarod (time of fall) [2] | Half-life (min) (HumanLM) [3] | Half-life (min) (MouseLM) [4] | % left (MouseLM), (1 h) [4] | effect on CRS-induced working memory deficit (percent alternation rate, Y-maze) [1, 10] | % left after 2 hr. (Human LM) ([3]; 2 hr) | half-life at 10 μM [3] | % left after 2 hr. (MouseLM) [4] | half-life at 10 μM [4] | Alternation rate (%) ([1]; Dose 1-5-10 mg/kg) | Alternation rate (%) ([1]; Dose 5 mg/kg) | locomotor activity (distance travelled, 30 min session) (mice; i.p. 60 min before testing, dose not given) | % left (Human LM), (1 h) [3] | Alternation rate (%) ([1]; Dose 10 mg/kg) |
| --- | --- | --- | --- | --- | --- | --- | --- | --- | --- | --- | --- | --- | --- | --- | --- | --- | --- | --- | --- | --- |
| C#Cc1ccc2c(c1)C(c1ccccc1F)=N[C@H](C)c1c(C(=O)N(C)C)ncn1-2 [GL-II-73, (R)-8-ethynyl-6-(2-fluorophenyl)-N,N,4-trimethyl-4H-benzo[f]imidazo[1,5-a][1,4]diazepine-3-carboxam] | pro-cognitive effect | pro-cognitive effect | pro-cognitive effect | no significant effect; also recorded: no effect on locomotor activity | significant increase in locomotion; also recorded: significant increase in distance traveled | significant increase in locomotion; also recorded: significant increase in distance traveled | no sensorimotor impairment | 755 ± 243 min | 309 ± 36 min | 81.6% and 86.6 ± 0.2% | – | – | – | – | – | – | – | – | – | – |
| C#Cc1ccc2c(c1)C(c1ccccc1F)=N[C@@H](C)c1c(C(=O)N(C)C)ncn1-2 [GL-I-54, (S)-8-ethynyl-6-(2-fluorophenyl)-N,N,4-trimethyl-4H-benzo[f]imidazo[1,5-a][1,4]diazepine-3-carboxamide] | – | significant reversal of CRS-induced impairment in working memory; also recorded: significant pro-cognitive effect | – | – | – | – | most severe motor impairment | – | – | – | decreased performance | 36.4 ± 2.0% | 100 ± 4.5 min | 15.0% and 15.0 ± 3.0% | 53 ± 10 min | – | – | – | – | – |
| C#Cc1ccc2c(c1)C(c1ccccc1F)=N[C@H](C)c1c(C(=O)NC3CC3)ncn1-2 [GL-II-75, (R)—N-cyclopropyl-8-ethynyl-6-(2-fluorophenyl)-4-methyl-4H-benzo[f]imidazo[1,5-a][1,4]diazepine-3-carboxamide] | significant reversal of CRS-induced impairment in working memory; also recorded: significant pro-cognitive effect | significant reversal of CRS-induced impairment in working memory; also recorded: significant pro-cognitive effect | – | significant increase in locomotion; also recorded: significant increase in distance traveled | no significant effect; also recorded: no effect on locomotor activity | significant increase in locomotion; also recorded: significant increase in distance traveled | – | – | – | 83.5 ± 0.2% | significant reversal of CRS-induced impairment in working memory; also recorded: significant pro-cognitive effect | – | 712 ± 165 min | – | 239 ± 22 min | – | – | – | – | – |
| C#Cc1ccc2c(c1)C(c1ccccc1F)=N[C@H](C)c1c(C(=O)NCC)ncn1-2 [GL-II-74, (R)—N-ethyl-8-ethynyl-6-(2-fluorophenyl)-4-methyl-4H-benzo[f]imidazo[1,5-a][1,4]diazepine-3-carboxamide] | – | – | – | no significant effect; also recorded: no effect on locomotor activity | no significant effect; also recorded: no effect on locomotor activity | significant increase in locomotion; also recorded: significant increase in distance traveled | no sensorimotor impairment | – | – | 56.5 ± 0.3% | – | – | 751 ± 214 min | – | 69 ± 3 min | <58.3% | – | – | – | – |
| C#Cc1ccc2c(c1)C(c1ccccc1F)=N[C@H](C)c1c(C(=O)NC)ncn1-2 [MP-III-022] | – | – | – | – | – | – | – | – | – | – | – | – | 141 ± 18 min | 76.6% and 76.6 ± 0.2% | 164 ± 10 min | – | 45.5% | no significant difference; also recorded: no effect | 69.4 ± 0.4% | – |
| C#Cc1ccc2c(c1)C(c1ccccc1F)=N[C@H](C)c1c(C(=O)N3CCCC3)ncn1-2 [GL-II-76, (R)-(8-ethynyl-6-(2-fluorophenyl)-4-methyl-4H-benzo[f]imidazo[1,5-a][1,4]diazepin-3-yl)(pyrrolidin-1-yl)methanone] | – | – | – | – | – | – | no sensorimotor impairment | – | – | 18.6 ± 0.3% | – | – | 154 ± 5 min | – | 23 ± 1 min | – | – | – | 75 ± 0.1% | 47.2% |
